In US20050256302A1, “Novel peptides having camp producing activity” (Japan Science and Technology Agency, priority 2002, published 2005):
Where a SMILES comes first, the peptide text is derived from it. Bridges are numbered along the chain shown (N, C = ends).

Tests used:
[1] = biological target: T1, Pig calcitonin receptor (CTR) (Sus scrofa, UniProt P25117); experiment: cAMP production in COS-7 cells expressing pig calcitonin receptor; assay type: cell-based
T1 construct: expressed in transfected cells; host or cells: COS-7 (given as rhesus monkey renal cells), vector pcDNA 3.1
T1 sequence (P25117 30-498): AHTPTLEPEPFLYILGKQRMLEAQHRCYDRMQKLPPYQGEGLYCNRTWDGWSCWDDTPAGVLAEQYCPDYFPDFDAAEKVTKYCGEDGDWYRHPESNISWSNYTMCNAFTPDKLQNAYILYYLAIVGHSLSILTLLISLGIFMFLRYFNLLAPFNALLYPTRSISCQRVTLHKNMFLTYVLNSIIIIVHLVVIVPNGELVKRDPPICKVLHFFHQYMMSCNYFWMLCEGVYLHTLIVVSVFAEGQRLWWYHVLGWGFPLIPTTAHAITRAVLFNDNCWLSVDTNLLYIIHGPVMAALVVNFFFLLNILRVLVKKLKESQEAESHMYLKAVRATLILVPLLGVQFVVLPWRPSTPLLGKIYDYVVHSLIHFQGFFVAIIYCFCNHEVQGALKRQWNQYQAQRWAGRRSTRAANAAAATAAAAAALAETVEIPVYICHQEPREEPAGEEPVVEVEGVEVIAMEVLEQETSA
Description: (§1) Pig calcitonin receptor (CTR) was introduced into a mammalian expression vector pcDNA 3.1, expressed in rhesus monkey renal cells (COS-7) and production amount of cAMP by stimulation of CRSP was measured by radioimmunoassay. Similarly, CTR was expressed in opossum renal cells (OK cells) and production amount of cAMP by stimulation of CRSP was measured by radioimmunoassay while incorporation of sodium ion was measured by measuring the incorporation of sodium chloride having radioactivity (^22Na) by a gamma-counter.
Pig calcitonin receptor (CTR) was introduced into mammalian expression vector pcDNA 3.1 and then expressed in rhesus monkey renal cells (COS-7) whereupon production amount of cAMP by CRSP stimulation was measured by radioimmunoassay.
Pig calcitonin receptor (CTR) was introduced into a mammalian expression vector pcDNA 3.1 and expressed in rhesus monkey renal cells (COS-7) and production amount of cAMP by CRSP stimulation was measured by radioimmunoassay.
Pig calcitonin receptor (CTR) was introduced into a mammalian expression vector pcDNA 3.1, then expressed in rhesus monkey renal cells (COS-7) and production amount of cAMP by CRSP or CRSP-Gly stimulation was measured-by radioimmunoassay.

[2] = test system: LLC-PK1 cells; experiment: cAMP production in LLC-PK1 cells (radioimmunoassay); assay type: cell-based, pig; conditions: ratio of ED50
Description: CRSP dissolved in DMEM was added to a medium for LLC-PK1 cells and amount of cAMP secreted therefrom was quantified by means of radioimmunoassay using a cAMP-specific antibody.
LLC-PK1 cells were incubated in a culture medium (a Dulbecco-modified Eagle medium (DMEM) containing 10% of fetal calf serum (FCS)), CRSP dissolved in DMEM containing 0.05% of bovine serum albumin was substituted for a culture medium for the cells after two days, incubation was conducted for 30 minutes, the medium was recovered and amount of the secreted cAMP was quantified by radioimmunoassay using a cAMP-specific antibody.

[3] = test system: LLC-PK1 cells; experiment: Incorporation of calcium ion (45Ca) in LLC-PK1 cells; assay type: cell-based, pig; conditions: 10 minutes
Description: The results are shown in FIG. 5 (incorporation of sodium ion in the absence of EIPA), FIG. 6 (incorporation of sodium ion in the presence of EIPA) and FIG. 7 (incorporation of calcium ion).
Incorporation of calcium ion was conducted as follows. Thus, LLC-PK1 cells were washed with a Hanks' solution (calcium-free Hanks' solution) where concentration of calcium chloride was lowered to 0 mM. Calcium chloride (^45Ca) was added to a calcium-free Hanks' solution on the cells together with CRSP, the cells were washed after 10 minutes to completely wash out ^45Ca contained in the solution outside the cells and radioactivity incorporated into the cells was measured by a liquid scintillation counter.

[4] = test system: LLC-PK1 cells; experiment: Suppression of cell proliferation (125I-DU incorporation, cell count); assay type: cell-based, pig; conditions: 125I-DU incorporation and cell count
Description: A solution of each peptide in DMEM in each concentration was added to LLC-PK1 cells, then DMEM (containing 0.1% BSA) which contained bromodeoxyuridine labeled with ^125I (^125I-DU) was added to each well and, after 5 hours, radioactivity incorporated into the nuclei was measured by a gamma-counter to measure the DNA amount synthesized as a result of cell proliferation.
With regard to the number of proliferated cells, each solution of CRSP in DMEM in various concentrations was added to LLC-PK1 cells of 10,000 cells/well, incubation was conducted, the cells on the incubation dish was taken out by a trypsin-EDTA solution and cell numbers were counted using a counting plate.
LLC-PK1 cells were incubated for two days in a DMEM (containing 10% of FCS) on a 24-well collagen plate, once washed with a DMEM and substituted with a DMEM (containing 10% of FCS) containing 0 and 10^−12 to 10^−6 M of CRSP followed by incubating. After 2 hours, a DMEM (containing 0.1% of BSA) containing ^125I-labeled bromodeoxyuridine was added to each well and, after 5 hours, radioactivity incorporated into the nuclei was measured by a gamma-counter whereupon the amount of DNA synthesized as a result of cell proliferation was measured.
Similarly, LLC-PK1 cells of 10,000 cells/well were sown on a 24-well collagen plate and incubated with a DMEM (containing 10% of FCS) for 24 hours. […]

[5] = biological target: T1, Pig calcitonin receptor (CTR); experiment: Incorporation of sodium ion (22Na) in OK cells expressing CTR; assay type: cell-based; conditions: CTR expressed in OK cells
Description: as §1, with “gamma-counter. The results are shown in FIG. 10 (changes in cAMP productivity by CRSP stimulation in cells (COS-7) where calcitonin receptor was expressed in a genetic engineering manner), FIG. 11 (changes in cAMP productivity in opossum renal epithelial cells where pig calcitonin receptor (CTR) was expressed) and FIG. 12 (changes in incorporation of sodium ion in opossum renal epithelial cells where pig calcitonin receptor (CTR) was expressed).” for “gamma-counter.”
Similarly, CTR was expressed in opossum renal cells (OK cells) and production amount of cAMP by CRSP stimulation was measured by radioimmunoassay while incorporation of sodium ion was measured by incorporation of radioactive sodium chloride (^22Na) using a gamma-counter.

CSCC[C@H](NC(=O)[C@H](CCCCN)NC(=O)[C@@H](NC(=O)[C@@H]1CCCN1C(=O)[C@H](CC(C)C)NC(=O)[C@H](CC(C)C)NC(=O)[C@H](CC(N)=O)NC(=O)[C@H](CO)NC(=O)[C@H](CCCNC(=N)N)NC(=O)[C@@H](NC(=O)[C@H](CCSC)NC(=O)[C@H](CO)NC(=O)CNC(=O)[C@H](CO)NC(=O)[C@H](CCCNC(=N)N)NC(=O)[C@H](CO)NC(=O)[C@H](CC(C)C)NC(=O)[C@H](CC(C)C)NC(=O)CNC(=O)[C@@H](NC(=O)[C@H](CC(C)C)NC(=O)[C@H](CCCNC(=N)N)NC(=O)[C@H](Cc1c[nH]cn1)NC(=O)[C@@H](NC(=O)[C@H](CCSC)NC(=O)[C@@H]1CSSC[C@H](NC(=O)[C@@H](N)CO)C(=O)N[C@@H](CC(N)=O)C(=O)N[C@@H]([C@@H](C)O)C(=O)N[C@@H](C)C(=O)N[C@@H]([C@@H](C)O)C(=O)N1)[C@@H](C)O)C(C)C)C(C)C)[C@@H](C)O)C(=O)NCC(=O)N[C@@H](Cc1ccccc1)C(=O)N[C@@H](CCCCN)C(=O)N[C@H](C(=O)N[C@@H](Cc1ccccc1)C(=O)NCC(N)=O)C(C)C [CRSP] (H-SCNTATCMTHRLVGLLSRSGSMVRSNLLPTKMGFKVFG-NH2; disulfide 2-7)
cAMP productivity, CRSP compared with CRSP-Gly ([1]; CTR expressed in COS-7): nearly the same cAMP productivity
activity stronger than pig calcitonin ([1]; CTR expressed in COS-7, ratio of ED50): about 350 fold
EC50 ([1]; CTR expressed in COS-7, read-out: ED50, increase of intracellular adenylyl cyclase activity (cAMP production)): ~0.2 nM
activity stronger than pig CGRP [2]: about 40 fold
activity stronger than pig calcitonin [2]: about 6 fold
incorporation of calcium into cells [3]: suppressed
growth of LLC-PK1 cells [4]: suppressing the growth of LLC-PK1 cells
amyloride-sensitive Na/H co-transporter [5]: activated
incorporation of sodium into cells [5]: promoted
